{"source": "paper PMC7311426", "about": "“An amphipathic peptide with antibiotic activity against multidrug-resistant Gram-negative bacteria” (Nature Communications, 2020)", "experiment_in_all_cases": "microbe, parasite or virus in culture", "key": {"[1]": {"system": "P. aeruginosa", "procedure,_shortened": "(§1)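 MICs were scored by eye after 18-20 h static incubation at 37 °C, with bacteria at 5 × 10^5 CFU mL^−1 in MHB. Peptides were serially diluted 2-fold over 12 points, top 128 or 64 μg mL^−1. CAMHB (CLSI) and 1% agarose-MHB variants were also run, at least six replicates.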"}, "[2]": {"system": "S. aureus", "conditions": "BMD; range over strains and media", "procedure,_shortened": "as §1"}, "[3]": {"system": "S. enterica Typhi", "conditions": "Typhi", "procedure,_shortened": "as §1"}, "[4]": {"system": "A. baumannii clinical isolates", "conditions": "clinical isolates", "procedure,_shortened": "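MIC90 from CLSI broth microdilution (M07-A9) in two clinical-isolate panels. US panel (331 isolates, 2010-2012): AA139 diluted in 0.01% acetic acid/0.1% BSA. Worldwide panel (445 isolates, 2011-2013, four regions): CAMHB, with 0.002% Tween 80 added for AA139 and polymyxin B.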"}}, "note": "Residues, ends and D or L forms follow the SMILES beside them."}
{"smiles": "CC(C)[C@@H]1NC(=O)[C@H](Cc2ccc(O)cc2)NC(=O)[C@H](Cc2c[nH]c3ccccc23)NC(=O)[C@@H](NC(=O)[C@H](Cc2ccccc2)NC(=O)CN)CSSC[C@@H](C(=O)N[C@@H](CC(N)=O)C(=O)O)NC(=O)[C@H](CCCNC(=N)N)NC(=O)[C@H](CCCNC(=N)N)NC(=O)[C@H](Cc2ccc(O)cc2)NC(=O)[C@@H]2CSSC[C@H](NC1=O)C(=O)N[C@@H](C)C(=O)N[C@@H](CCCNC(=N)N)C(=O)N[C@@H](CCCNC(=N)N)C(=O)N[C@@H](CC(N)=O)C(=O)NCC(=O)N[C@@H](C)C(=O)N[C@@H](CCCNC(=N)N)C(=O)N[C@@H](C(C)C)C(=O)N2", "note": "[AA139] (HELM PEPTIDE1{G.F.C.W.Y.V.C.A.R.R.N.G.A.R.V.C.Y.R.R.C.N}$PEPTIDE1,PEPTIDE1,3:R3-20:R3|PEPTIDE1,PEPTIDE1,7:R3-16:R3$$$V2.0)", "values": [{"measurement": "MIC, broth microdilution", "setting": "[1]; P. aeruginosa ATCC 27853 spontaneous mutant, AA139 selection 8X, plate 1, colony 1, drug-free passage 1", "value": "1, 1 µg/mL"}, {"measurement": "MIC, broth microdilution", "setting": "[1]; P. aeruginosa ATCC 27853 spontaneous mutant, AA139 selection 8X, plate 1, colony 1, drug-free passage 5", "value": "1, 1 µg/mL"}, {"measurement": "MIC, broth microdilution", "setting": "[1]; P. aeruginosa ATCC 27853 spontaneous mutant, AA139 selection 8X, plate 1, colony 2, drug-free passage 1", "value": 1, "unit": "µg/mL"}, {"measurement": "MIC, broth microdilution", "setting": "[1]; P. aeruginosa ATCC 27853 spontaneous mutant, AA139 selection 8X, plate 1, colony 2, drug-free passage 5", "value": 2, "unit": "µg/mL"}, {"measurement": "MIC, broth microdilution", "setting": "[1]; P. aeruginosa ATCC 27853 spontaneous mutant, AA139 selection 8X, plate 1, colony 3, drug-free passage 1", "value": "1, 1 µg/mL"}, {"measurement": "MIC, broth microdilution", "setting": "[1]; P. aeruginosa ATCC 27853 spontaneous mutant, AA139 selection 8X, plate 1, colony 3, drug-free passage 5", "value": "1, 1 µg/mL"}, {"measurement": "MIC, broth microdilution", "setting": "[1]; P. aeruginosa ATCC 27853 spontaneous mutant, AA139 selection 8X, plate 1, colony 4, drug-free passage 1", "value": "1, 1 µg/mL"}, {"measurement": "MIC, broth microdilution", "setting": "[1]; P. aeruginosa ATCC 27853 spontaneous mutant, AA139 selection 8X, plate 1, colony 4, drug-free passage 5", "value": "1, 1 µg/mL"}, {"measurement": "MIC, broth microdilution", "setting": "[1]; P. aeruginosa ATCC 27853 spontaneous mutant, AA139 selection 8X, plate 1, colony 5, drug-free passage 1", "value": "1, 1 µg/mL"}, {"measurement": "MIC, broth microdilution", "setting": "[1]; P. aeruginosa ATCC 27853 spontaneous mutant, AA139 selection 8X, plate 1, colony 5, drug-free passage 5", "value": "1, 1 µg/mL"}, {"measurement": "BMD MIC", "setting": "[1]; P. aeruginosa FADDI-070, MDR, PmxR, MHB/CAMHB, mode of 6 replicates", "value": 2, "unit": "µg/mL"}, {"measurement": "MIC, broth microdilution", "setting": "[1]; P. aeruginosa UNT 138-1 spontaneous mutant, AA139 selection 4X, plate 1, colony 1, drug-free passage 1", "value": "2, 2 µg/mL"}, {"measurement": "MIC, broth microdilution", "setting": "[1]; P. aeruginosa UNT 138-1 spontaneous mutant, AA139 selection 4X, plate 1, colony 1, drug-free passage 5", "value": "2, 2 µg/mL"}, {"measurement": "MIC, broth microdilution", "setting": "[1]; P. aeruginosa UNT 138-1 spontaneous mutant, AA139 selection 4X, plate 1, colony 2, drug-free passage 1", "value": "1, 1 µg/mL"}, {"measurement": "MIC, broth microdilution", "setting": "[1]; P. aeruginosa UNT 138-1 spontaneous mutant, AA139 selection 4X, plate 1, colony 2, drug-free passage 5", "value": "1, 1 µg/mL"}, {"measurement": "MIC, broth microdilution", "setting": "[1]; P. aeruginosa UNT 138-1 spontaneous mutant, AA139 selection 4X, plate 1, colony 3, drug-free passage 1", "value": "1, 1 µg/mL"}, {"measurement": "MIC, broth microdilution", "setting": "[1]; P. aeruginosa UNT 138-1 spontaneous mutant, AA139 selection 4X, plate 1, colony 3, drug-free passage 5", "value": "1, 1 µg/mL"}, {"measurement": "MIC, broth microdilution", "setting": "[1]; P. aeruginosa UNT 138-1 spontaneous mutant, AA139 selection 4X, plate 1, colony 4, drug-free passage 1", "value": "1, 1 µg/mL"}, {"measurement": "MIC, broth microdilution", "setting": "[1]; P. aeruginosa UNT 138-1 spontaneous mutant, AA139 selection 4X, plate 1, colony 4, drug-free passage 5", "value": "1, 1 µg/mL"}, {"measurement": "MIC, broth microdilution", "setting": "[1]; P. aeruginosa UNT 138-1 spontaneous mutant, AA139 selection 4X, plate 1, colony 5, drug-free passage 1", "value": 2, "unit": "µg/mL"}, {"measurement": "MIC, broth microdilution", "setting": "[1]; P. aeruginosa UNT 138-1 spontaneous mutant, AA139 selection 4X, plate 1, colony 5, drug-free passage 5", "value": 1, "unit": "µg/mL"}, {"measurement": "MIC, broth microdilution", "setting": "[1]; P. aeruginosa UNT 138-1 spontaneous mutant, AA139 selection 4X, plate 1, colony 6, drug-free passage 1", "value": 2, "unit": "µg/mL"}, {"measurement": "MIC, broth microdilution", "setting": "[1]; P. aeruginosa UNT 138-1 spontaneous mutant, AA139 selection 4X, plate 1, colony 6, drug-free passage 5", "value": 1, "unit": "µg/mL"}, {"measurement": "MIC, broth microdilution", "setting": "[1]; P. aeruginosa UNT 138-1 spontaneous mutant, AA139 selection 4X, plate 1, colony 7, drug-free passage 1", "value": 2, "unit": "µg/mL"}, {"measurement": "MIC, broth microdilution", "setting": "[1]; P. aeruginosa UNT 138-1 spontaneous mutant, AA139 selection 4X, plate 1, colony 7, drug-free passage 5", "value": 1, "unit": "µg/mL"}, {"measurement": "MIC, broth microdilution", "setting": "[1]; P. aeruginosa UNT 138-1 spontaneous mutant, AA139 selection 4X, plate 2, colony 1, drug-free passage 1", "value": "2, 2 µg/mL"}, {"measurement": "MIC, broth microdilution", "setting": "[1]; P. aeruginosa UNT 138-1 spontaneous mutant, AA139 selection 4X, plate 2, colony 1, drug-free passage 5", "value": "2, 2 µg/mL"}, {"measurement": "MIC, broth microdilution", "setting": "[1]; P. aeruginosa UNT 138-1 spontaneous mutant, AA139 selection 4X, plate 2, colony 2, drug-free passage 1", "value": 2, "unit": "µg/mL"}, {"measurement": "MIC, broth microdilution", "setting": "[1]; P. aeruginosa UNT 138-1 spontaneous mutant, AA139 selection 4X, plate 2, colony 2, drug-free passage 5", "value": 1, "unit": "µg/mL"}, {"measurement": "MIC, broth microdilution", "setting": "[1]; P. aeruginosa UNT 138-1 spontaneous mutant, AA139 selection 4X, plate 2, colony 3, drug-free passage 1", "value": "2, 2 µg/mL"}, {"measurement": "MIC, broth microdilution", "setting": "[1]; P. aeruginosa UNT 138-1 spontaneous mutant, AA139 selection 4X, plate 2, colony 3, drug-free passage 5", "value": "2, 2 µg/mL"}, {"measurement": "MIC, broth microdilution", "setting": "[1]; P. aeruginosa UNT 138-1 spontaneous mutant, AA139 selection 4X, plate 2, colony 4, drug-free passage 1", "value": 2, "unit": "µg/mL"}, {"measurement": "MIC, broth microdilution", "setting": "[1]; P. aeruginosa UNT 138-1 spontaneous mutant, AA139 selection 4X, plate 2, colony 4, drug-free passage 5", "value": 1, "unit": "µg/mL"}, {"measurement": "MIC, broth microdilution", "setting": "[1]; P. aeruginosa UNT 138-1 spontaneous mutant, AA139 selection 4X, plate 2, colony 5, drug-free passage 1", "value": 2, "unit": "µg/mL"}, {"measurement": "MIC, broth microdilution", "setting": "[1]; P. aeruginosa UNT 138-1 spontaneous mutant, AA139 selection 4X, plate 2, colony 5, drug-free passage 5", "value": 1, "unit": "µg/mL"}, {"measurement": "MIC, broth microdilution", "setting": "[1]; P. aeruginosa UNT 138-1 spontaneous mutant, AA139 selection 4X, plate 2, colony 6, drug-free passage 1", "value": 2, "unit": "µg/mL"}, {"measurement": "MIC, broth microdilution", "setting": "[1]; P. aeruginosa UNT 138-1 spontaneous mutant, AA139 selection 4X, plate 2, colony 6, drug-free passage 5", "value": 1, "unit": "µg/mL"}, {"measurement": "MIC, broth microdilution", "setting": "[1]; P. aeruginosa UNT 138-1 spontaneous mutant, AA139 selection 4X, plate 2, colony 7, drug-free passage 1", "value": 2, "unit": "µg/mL"}, {"measurement": "MIC, broth microdilution", "setting": "[1]; P. aeruginosa UNT 138-1 spontaneous mutant, AA139 selection 4X, plate 2, colony 7, drug-free passage 5", "value": 1, "unit": "µg/mL"}, {"measurement": "MIC, broth microdilution", "setting": "[1]; P. aeruginosa UNT 138-1 spontaneous mutant, AA139 selection 8X, plate 1, colony 1, drug-free passage 1", "value": 2, "unit": "µg/mL"}, {"measurement": "MIC, broth microdilution", "setting": "[1]; P. aeruginosa UNT 138-1 spontaneous mutant, AA139 selection 8X, plate 1, colony 1, drug-free passage 5", "value": 1, "unit": "µg/mL"}, {"measurement": "MIC, broth microdilution", "setting": "[1]; P. aeruginosa UNT 138-1 spontaneous mutant, AA139 selection 8X, plate 1, colony 2, drug-free passage 1", "value": "1, 1 µg/mL"}, {"measurement": "MIC, broth microdilution", "setting": "[1]; P. aeruginosa UNT 138-1 spontaneous mutant, AA139 selection 8X, plate 1, colony 2, drug-free passage 5", "value": "1, 1 µg/mL"}, {"measurement": "MIC, broth microdilution", "setting": "[1]; P. aeruginosa UNT 138-1 spontaneous mutant, AA139 selection 8X, plate 1, colony 3, drug-free passage 1", "value": "1, 1 µg/mL"}, {"measurement": "MIC, broth microdilution", "setting": "[1]; P. aeruginosa UNT 138-1 spontaneous mutant, AA139 selection 8X, plate 1, colony 3, drug-free passage 5", "value": "1, 1 µg/mL"}, {"measurement": "MIC, broth microdilution", "setting": "[1]; P. aeruginosa UNT 138-1 spontaneous mutant, AA139 selection 8X, plate 1, colony 4, drug-free passage 1", "value": "2, 2 µg/mL"}, {"measurement": "MIC, broth microdilution", "setting": "[1]; P. aeruginosa UNT 138-1 spontaneous mutant, AA139 selection 8X, plate 1, colony 4, drug-free passage 5", "value": "2, 2 µg/mL"}, {"measurement": "MIC, broth microdilution", "setting": "[1]; P. aeruginosa UNT 138-1 spontaneous mutant, AA139 selection 8X, plate 1, colony 5, drug-free passage 1", "value": 1, "unit": "µg/mL"}, {"measurement": "MIC, broth microdilution", "setting": "[1]; P. aeruginosa UNT 138-1 spontaneous mutant, AA139 selection 8X, plate 1, colony 5, drug-free passage 5", "value": 2, "unit": "µg/mL"}, {"measurement": "MIC, broth microdilution", "setting": "[1]; P. aeruginosa UNT 138-1 spontaneous mutant, AA139 selection 8X, plate 2, colony 1, drug-free passage 1", "value": "1, 1 µg/mL"}, {"measurement": "MIC, broth microdilution", "setting": "[1]; P. aeruginosa UNT 138-1 spontaneous mutant, AA139 selection 8X, plate 2, colony 1, drug-free passage 5", "value": "1, 1 µg/mL"}, {"measurement": "MIC against Staphylococcus aureus", "setting": "[2]", "value": "32 to 64", "unit": "µg/mL"}, {"measurement": "BMD MIC", "setting": "[3]", "value": 0.5, "unit": "µg/mL"}, {"measurement": "MIC90 (A. baumannii)", "setting": "[4]", "value": 2.0, "unit": "µg/mL"}, {"measurement": "MIC against colistin-resistant isolates (did not surpass)", "setting": "[4]", "value": "≤ 2", "unit": "µg/mL"}]}
